According to patent US20080293674A1, “Azinyl Imidazoazine and Azinyl Carboxamide” (priority 2004, published 2008):
Read-outs that look alike come from different tables or passages of the source.

Legend:
Aphis gossypii = Aphis gossypii test (cotton leaf immersion); assay type: in vivo; details: 144 h, after 6 days at a concentration of 100 ppm, cotton leaves (Gossypium hirsutum), read-out: death rate
Procedure: After the desired time the death rate was determined in %, where 100% means that all aphids were killed; 0% means that no aphids were killed

Myzus persicae = test: Myzus test (spray treatment); assay type: in vivo; details: 120 h, after 5 days at a concentration of 500 g/ha, read-out: death rate
Procedure: After the desired time the death rate was determined in %, where 100% means that all aphids were killed; 0% means that no aphids were killed.

[1] = China cabbage leaves (Brassica pekinensis)

Q: With `CO/N=C/c1nc(-c2cnccc2C(F)(F)F)n2ccccc12` [Example 6, 1-methoximinomethyl-3-(4-trifluoromethylpyridin-3-yl)-imidazo[1,5-a]-pyridine] as the molecule, how does the pest or weed control at 100 ppm (Aphis gossypii) read?
A: ≥ 80%

Q: And the pest or weed control at 500 g/ha (Myzus persicae; [1])?
A: ≥ 80%

Q: Which results are given for `FC(F)(F)c1ccncc1-c1nc(C#Cc2ccccc2)c2ccccn12` [Example 8, 1-(phenylethynyl)-3-(4-trifluoromethylpyridin-3-yl)-imidazo[1,5-a]-pyridine]?
A: pest or weed control at 100 ppm (Aphis gossypii): ≥ 80%; pest or weed control at 500 g/ha (Myzus persicae; [1]): ≥ 80%

Q: For `Cc1cc(C)nc(CNC(=O)c2cnccc2C(F)(F)F)n1` [II-11, N-(4,6-Dimethylpyrimidin-2-ylmethyl)-4-trifluoromethyl-nicotinamide], which pest or weed control at 500 g/ha (Myzus persicae; compounds of structure (II-b)) is on record?
A: ≥ 90%

Q: Which results are given for `FC(F)(F)c1ccncc1-c1ncc2ccccn12` [Example 1, 3-(4-trifluoromethylpyridin-3-yl)-imidazo[1,5-a]pyridine]?
A: pest or weed control at 100 ppm (Aphis gossypii): ≥ 80%; pest or weed control at 500 g/ha (Myzus persicae; [1]): ≥ 80%

Q: Which pest or weed control at 100 ppm (Aphis gossypii) does the source give for `FC(F)(F)c1cc(Cl)c2c(Cl)nc(-c3cnccc3C(F)(F)F)n2c1` [Example 38] here?
A: ≥ 80%

Q: And the pest or weed control at 500 g/ha (Myzus persicae; [1])?
A: ≥ 80%

Q: How did the pest or weed control at 500 g/ha (Myzus persicae; compounds of structure (II-b)) turn out when `O=C(NCc1ncccn1)c1cnccc1C(F)(F)F` [II-27, N-Pyrimidin-2-ylmethyl-4-trifluoromethyl-nicotinamide] was run?
A: ≥ 90%

Q: `FC(F)(F)c1ccncc1-c1nc(CN(Cc2ccccc2)Cc2ccccc2)c2ccccn12` [Example 124, 1-(dibenzylaminomethyl)-3-(4-trifluoromethylpyridin-3-yl)-imidazo[1,5-a]pyridine] was tested. Which pest or weed control at 100 ppm (Aphis gossypii) did it give?
A: ≥ 80%

Q: What about the pest or weed control at 500 g/ha (Myzus persicae; [1]) of the same molecule?
A: ≥ 80%

Q: For `O=C(O)c1nc(-c2cnccc2C(F)(F)F)n2ccccc12` [Example 126, 3-(4-trifluoromethylpyridin-3-yl)-imidazo[1,5-a]pyridine-1-carboxylic acid], which pest or weed control at 100 ppm (Aphis gossypii) is on record?
A: ≥ 80%

Q: And the pest or weed control at 500 g/ha (Myzus persicae; [1])?
A: ≥ 80%

Q: For `FC(F)(F)c1ccncc1-c1nc(/C=C/c2ccccc2)c2ccccn12` [Example 127, 1-(phenylvinylidene)-3-(4-Trifluoromethylpyridin-3-yl)-imidazo[1,5-a]-pyridine], which pest or weed control at 100 ppm (Aphis gossypii) is on record?
A: ≥ 80%

Q: What about the pest or weed control at 500 g/ha (Myzus persicae; [1]) of the same molecule?
A: ≥ 80%

Q: For `CSc1nc(-c2cnccc2C(F)(F)F)n2ccccc12` [Example 128], which pest or weed control at 500 g/ha (Myzus persicae; [1]) is on record?
A: ≥ 80%

Q: For `Cc1cnc(CNC(=O)c2cnccc2C(F)(F)F)cn1` [II-29], which pest or weed control at 500 g/ha (Myzus persicae; compounds of structure (II-b)) is on record?
A: ≥ 90%

Q: `O=Cc1nc(-c2cnccc2C(F)(F)F)n2ccccc12` [Example 5, 3-(4-trifluoromethylpyridin-3-yl)-imidazo[1,5-a]pyridine-1-carboxaldehyde] was tested. Which pest or weed control at 100 ppm (Aphis gossypii) did it give?
A: ≥ 80%

Q: What about the pest or weed control at 500 g/ha (Myzus persicae; [1]) of the same molecule?
A: ≥ 80%

Q: Which results are given for `FC(F)(F)c1ccncc1-c1nc(Cl)c2ccccn12` [Example 4, 1-chloro-3-(4-trifluoromethylpyridin-3-yl)-imidazo[1,5-a]pyridine]?
A: pest or weed control at 100 ppm (Aphis gossypii): ≥ 80%; pest or weed control at 500 g/ha (Myzus persicae; [1]): ≥ 80%

Q: Which pest or weed control at 500 g/ha (Myzus persicae; [1]) does the source give for `FC(F)(F)c1ccncc1-c1nc(Br)c2ccccn12` [Example 3, 1-bromo-3-(4-trifluoromethylpyridin-3-yl)-imidazo[1,5-a]pyridine] here?
A: ≥ 80%

Q: Which results are given for `Cc1cc(CNC(=O)c2cnccc2C(F)(F)F)nc(C)n1` [II-38, N-(2,6-Dimethylpyrimidin-4-ylmethyl)-4-trifluoromethyl nicotinamide]?
A: pest or weed control at 500 g/ha (Myzus persicae; [1]): ≥ 80%; pest or weed control at 500 g/ha (Myzus persicae; compounds of structure (II-b)): ≥ 90%

Q: `FC(F)(F)c1ccncc1-c1nc(-c2cccc(Cl)c2)c2ccccn12` [Example 7, 1-(3-chlorophenyl)-3-(4-trifluoromethylpyridin-3-yl)-imidazo[1,5-a]-pyridine] was tested. Which pest or weed control at 500 g/ha (Myzus persicae; [1]) did it give?
A: ≥ 80%
